In patent US7888379B2, “Thiazole derivatives and use thereof” (Merck Serono SA, priority 2005, dated 2011):

Tests used:
[1] = biological target: Human recombinant GST-PI3Kγ (Homo sapiens, UniProt P48736); assay: High Throughput PI3K Lipid Kinase Assay (SPA, neomycin-coated beads); type: biochemical
Text: a) High Throughput PI3K Lipid Kinase Assay (Binding Assay):
The efficacy of compounds of the invention in inhibiting the PI3K induced-lipid phosphorylation may be tested in the following binding assay
The assay combines the scintillation proximity assay technology (SPA, Amersham) with the capacity of neomycin (a polycationic antibiotic) to bind phospholipids with high affinity and specificity. The Scintillation Proximity Assay is based on the properties of weakly emitting isotopes (such as ^3H, ^125I, ^33P). Coating SPA beads with neomycin allows the detection of phosphorylated lipid substrates after incubation with recombinant PI3K and radioactive ATP in the same well, by capturing the radioactive phospholipids to the SPA beads through their specific binding to neomycin.
To a 384 wells MTP containing 5 μl of the test compound of Formula (I) (solubilized in 6% DMSO; to yield a concentration of 100, 30, 10, 3, 1, 0.3, 0.1, 0.03, 0.01, 01 μM of the test compound), the following assay components are added. 1) 5 μl (58 ng) of Human recombinant GST-PI3Kγ (in Hepes 40 mM, pH 7.4, DTT 1 mM and ethylenglycol 5%) 2) 10 μl of lipid micelles and 3) 10 μl of Kinase buffer ([^33P]γ-ATP 45 μM/60 nCi, MgCl2 30 mM, DTT 1 mM, β-Glycerophosphate 1 mM, Na3VO4 100 μM, Na Cholate 0.3%, in Hepes 40 mM, pH 7.4). After incubation at room temperature for 180 minutes, with gentle agitation, the reaction is stopped by addition of 60 μl of a solution containing 100 μg of neomycin-coated PVT SPA beads in PBS containing ATP 10 mM and EDTA 5 mM. The assay is further incubated at room temperature for 60 minutes with gentle agitation to allow binding of phospholipids to neomycin-SPA beads. After precipitation of the neomycin-coated PVT SPA beads for 5 minutes at 1500×g, radioactive PtdIns(3)P is quantified by scintillation counting in a Wallac MicroBeta™ plate counter.
The values indicated in Table I below refer to the IC50 (nM) with respect to PI3Kγ, i.e. the amount necessary to achieve 50% inhibition of said target. Said values show a considerable inhibitory potency of thiazole compounds with regard to PI3Kγ.

Neutrophils recruitment = assay: Thioglycollate-induced peritoneal cavity cell recruitment model; type: in vivo; settings: at 10 mg/kg after 4 hours, oral, female C3H mice, thioglycollate i.p.
Method: Thioglycollate-induced Peritoneal Cavity Cell Recruitment Model
The in vivo efficacy of compounds of the invention in inhibiting the migration of leukocytes upon intraperitoneal challenge of thioglycollate may be tested with the following assay.
8-10 weeks old female C3H mice are fasted during 18 hours. 15 minutes prior the intraperitoneal injection of thioglycollate (1.5%, 40 ml/kg), the mice are treated orally with Thiazoles of Formula (I). Control mice receive CMC/Tween as vehicle (10 ml/kg). The mice are then sacrificed by CO2 inhalation and the peritoneal cavity is washed two times with 5 ml of ice-cold PBS/1 mM EDTA. The ravages are done 4 hours or 48 hours after thioglycollate challenge to evaluate neutrophils or macrophages recruitment, respectively. The white blood cells (neutrophils, lymphocytes or macrophages) are counted using a Beckman Coulter® A°T 5diff™.
Dexamethasone is used as reference drug.

Akt/PKB phosphorylation = assay: Cell based ELISA to monitor PI3K inhibition: Akt/PKB phosphorylation in Raw 264-7 macrophages after Complement 5a stimulation; settings: Mus musculus, RAW264.7, phospho Serine 473 Akt, read-out: Cell Assay (P-Akt, Elisa) IC50
Method: b) Cell Based ELISA to Monitor PI3K Inhibition:
The efficacy of compounds of the invention in inhibiting the PI3K induced Akt/PKB phosphorylation may be tested in the following cell based assay.
Measurement of Akt/PKB phosphorylation in macrophages after stimulation with Complement 5a: Raw 264: Raw 264-7 macrophages (cultured in DMEM-F12 medium containing 10% Fetal Calf serum and antibiotics) are plated at 20'000 cells/well in a 96 MTP 24 h before cell stimulation. Prior to the stimulation with […] of Complement 5a during 5 minutes, Cells are serum starved for 2 h, and pretreated with inhibitors for 20 minutes. After stimulation cells are fixed in 4% formaldehyde for 20 minutes and washed 3 times in PBS containing 1% Triton X-100 (PBS/Triton). […] Next, phosphorylated Akt/PKB is detected by an overnight incubation at 4° C. with primary antibody (anti phospho Serine 473 Akt IHC, Cell Signaling) diluted 800-fold in PBS/Triton, containing 5% bovine serum albumin (BSA). After 3 washes in PBS/Triton, cells are incubated for 60 minutes with a peroxidase conjugated goat-anti-rabbit secondary antibody (1/400 dilution in PBS/Triton, containing 5% BSA), washed 3 times in PBS/Triton, and 2 times in PBS and further incubated in 100 μl of luminescent substrate reagent solution (Pierce) for 2 minutes, followed by the reading (1 s/well). […]

Chain of Human recombinant GST-PI3Kγ (P48736 whole entry): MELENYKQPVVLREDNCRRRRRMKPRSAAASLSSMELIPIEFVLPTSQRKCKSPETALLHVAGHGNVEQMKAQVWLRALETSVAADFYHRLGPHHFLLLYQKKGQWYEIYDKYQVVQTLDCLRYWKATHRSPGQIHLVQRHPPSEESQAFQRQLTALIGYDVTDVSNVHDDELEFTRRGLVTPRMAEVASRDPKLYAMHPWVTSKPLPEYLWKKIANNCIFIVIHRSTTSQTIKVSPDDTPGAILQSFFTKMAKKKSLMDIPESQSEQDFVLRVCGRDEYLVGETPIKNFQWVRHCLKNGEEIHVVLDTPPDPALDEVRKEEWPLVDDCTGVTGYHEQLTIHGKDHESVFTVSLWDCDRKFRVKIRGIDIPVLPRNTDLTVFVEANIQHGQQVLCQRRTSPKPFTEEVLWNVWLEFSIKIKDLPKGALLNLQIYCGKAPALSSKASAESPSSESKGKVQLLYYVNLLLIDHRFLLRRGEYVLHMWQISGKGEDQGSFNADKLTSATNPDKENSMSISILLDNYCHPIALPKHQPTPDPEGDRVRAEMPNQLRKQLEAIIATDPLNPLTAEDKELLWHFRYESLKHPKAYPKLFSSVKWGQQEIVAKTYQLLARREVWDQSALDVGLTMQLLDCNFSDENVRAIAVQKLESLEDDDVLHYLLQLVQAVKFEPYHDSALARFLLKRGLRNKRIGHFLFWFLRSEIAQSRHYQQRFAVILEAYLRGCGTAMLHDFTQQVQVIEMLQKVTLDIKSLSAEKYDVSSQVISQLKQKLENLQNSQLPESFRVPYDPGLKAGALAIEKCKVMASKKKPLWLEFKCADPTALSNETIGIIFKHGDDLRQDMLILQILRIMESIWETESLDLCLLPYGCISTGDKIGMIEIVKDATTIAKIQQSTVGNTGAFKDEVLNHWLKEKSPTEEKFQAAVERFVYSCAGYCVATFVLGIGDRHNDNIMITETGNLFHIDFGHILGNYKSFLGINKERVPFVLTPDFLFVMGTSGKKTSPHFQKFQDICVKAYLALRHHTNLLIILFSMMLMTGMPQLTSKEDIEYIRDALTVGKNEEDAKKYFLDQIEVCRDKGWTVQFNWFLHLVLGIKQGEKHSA

For CC(=O)Nc1nc(C)c(-c2ccc(C(=O)N3CCOCC3)s2)s1 [Example 5], the IC50 [1] was 249 nM.
CC(=O)Nc1nc(C)c(-c2ccc(C=O)s2)s1 [Example 1, N-[5-(5-formyl-2-thienyl)-4-methyl-1,3-thiazol-2-yl]acetamide] showed an IC50 [1] of 215 nM.
CC(=O)Nc1nc(C)c(-c2ccc(C(=O)N3CCCC(O)C3)s2)s1 (stereo not drawn) [Example 8, N-(5-{5-[(3-hydroxypiperidin-1-yl)carbonyl]-2-thienyl}-4-methyl-1,3-thiazol-2-yl)acetamide] gave an IC50 [1] of 1100 nM.
For C=CCNS(=O)(=O)c1ccc(-c2sc(NC(C)=O)nc2C)s1 [Example 12, N-(5-[5-{(allylamino)sulfonyl]-2-thienyl}-4-methyl-1,3-thiazol-2-yl) acetamide], the “% of inhibition of Neutrophils recruitment” value (Neutrophils recruitment) was 38% and the IC50 (Akt/PKB phosphorylation) was 322 nM.
In the case of CC(=O)Nc1nc(C)c(-c2ccc(CO)s2)s1 [Example 3, N-[5-[5-(hydroxymethyl)-2-thienyl]-4-methyl-1,3-thiazol-2-yl]acetamide], the IC50 [1] is reported as 219 nM.
